In patent publication US20230100173A1, “A TOPICAL COMPOSITION COMPRISING AN EXTRACT OF COMBINED HERBS […] ARILLUS FOR TLSP INHIBITION AND THE TREATMENT OR A[…] SKIN INFLAMMATORY DISEASE AND THE USE THEREOF” (ME[…]., LTD, priority 2020, published 2023):

Experiments:
IL-1β = assay: Inhibition of TNF alpha-induced IL-1β expression in HaCaT cells (RT-PCR); format: cell-based, human; conditions: TNFα 50 ng/ml, extract 1 μg/ml, Dex 200 nM, mean
Experimental: (§1) In order to determine the anti-inflammatory activity of inventive extract, following inhibition test of cytokine expression using HaCaT cell was performed according to the procedure disclosed in the literature (Jeong et al., 2019, J. Invest. Dermatol., May; 139 (5): pp 1098-1109).
(§2) HaCaT cell (human epithelial keratinocyte cell, 300493, CLS) was inoculated into DMEM medium containing 10% Fetal bovine serum, 100 units/m1 of penicillin, 100n/m1 of streptomycin (D6429, Sigma-Aldrich Co. Ltd) and was incubated in the incubator (HERA cell 150i, Thermo Fisher Scientific Co. Ltd.) maintaining optimum humidity (85-95%) and 5% CO2 atmosphere.
(§3) For performing gene expression test, the incubated cells were transferred to 12 wells and 50 ng/ml of TNF alpha (RC214-12, Biobasic Co. Ltd) was treated therewith for 1 hour to induce inflammatory response.
(§4) 1 hour after inducing the inflammation, 1 μg/ml of inventive extract prepared in Examples was treated with identical medium and subjected to incubation for 1 hour. After the incubation, RNA (FATRR-001, Favorgen) was extracted from the cell and cDNA was synthesized from the RNA using by cDNA synthesis kit (RRO36A, TAKARA). […]

skin epidermal layer = format: in vivo, mouse; conditions: DNFB BALB/C mice, 16th day, H&E; topical WIN-1001X 10 mg/ml, DEX 200 μM; acetone+DIW = 1, DNFB+DIW 7.06
Experimental: (§8) Ltd.) was spread at every third day starting from at 7th day to 16th day to induce skin inflammation. […] Additionally, the histological analysis on skin tissue of test animal has been performed. Specifically, the dorsal skin tissue occurring dermatitis was fixed on 4% (w/v) paraformaldehyde solution ([MUT], Sigma-Aldrich) in shaker maintaining 4° C. (CR300, […] ) at 16th day after the sample treatment and 12 hours after the fixation, the dehydrated and transparent tissue was embedded in paraffin, sliced (5 μm of width) to make tissue slices.

IL-22 = IL-22 expression in dorsal skin of DNFB mice (RT-PCR); format: in vivo, mouse; conditions: 16th day, WIN-1001X 10 mg/ml, DEX 200 μM, DNFB+DIW 29.2
IL-31 = IL-31 expression in dorsal skin of DNFB mice (RT-PCR); format: in vivo, mouse; conditions: 16th day, WIN-1001X 10 mg/ml, DEX 200 μM, DNFB+DIW 3.93
Experimental: (§5) 100 μL of 0.15% (w/v) DNFB (2,4-dinitrofluorobenzene, D1529, Sigma-Aldrich Co. Ltd.) was spread on […] of 6 weeks-old BALB/C female mouse (DBL Co., Ltd. Incheon, Korea) and after removing the central dorsal hair, 100 μL of 0.15% (w/v) DNFB (2,4-dinitrofluorobenzene, D1529, Sigma-Aldrich Co. Ltd.) was spread at every third day starting from at 7th day to 16th day to induce skin inflammation.
(§6) In order to determine the anti-inflammatory activity of inventive extract, following inhibition test of cytokine expression using test animal was performed according to the procedure disclosed in the literature (Li et al., Drug. Des. Devel. Ther., 2016, Feb. 19; 10:781-191).
(§7) At 16th day after the treatment of DNFB, RNA (FATRR-001, Favorgan) was extracted from the dorsal skin of mice prepared in Experimental Example 2 and cDNA was synthesized from the RNA using by cDNA synthesis kit (RRO36A, TAKARA). The polymerization reaction was performed using by the synthesized cDNA and Sybrgreen kit (RT500M, Enzynomics) and then Real-time-PCR was performed using by primers for various cytokines involved in skin inflammation (GADPH, TSLP, GM-CSF, IL-4, IL-10, IL-13, IL-31 and IL-33) as disclosed in Table 7.

TSLP [1] = assay: Inhibition of TNF alpha-induced TSLP expression in HaCaT cells (RT-PCR); format: cell-based, human; conditions: TNFα 50 ng/ml, extract 1 μg/ml, Dex 200 nM, mean
Experimental: as §1, §2, §3, §4

IL-10 = IL-10 expression in dorsal skin of DNFB mice (RT-PCR); format: in vivo, mouse; conditions: 16th day, WIN-1001X 10 mg/ml, DEX 200 μM, DNFB+DIW 19.3
Experimental: as §5, §6, §7

IL-13 = IL-13 expression in dorsal skin of DNFB mice (RT-PCR); format: in vivo, mouse; conditions: 16th day, WIN-1001X 10 mg/ml, DEX 200 μM, DNFB+DIW 48.6
Experimental: as §5, §6, §7

IL-4 = IL-4 expression in dorsal skin of DNFB mice (RT-PCR); format: in vivo, mouse; conditions: 16th day, WIN-1001X 10 mg/ml, DEX 200 μM, DNFB+DIW 11.4
Experimental: as §5, §6, §7

[2] = tested on: mast cells infiltrated into inflamed lesion; format: in vivo, mouse; conditions: DNFB BALB/C mice, 16th day, toluidine blue; topical WIN-1001X 10 mg/ml, DEX 200 μM; acetone+DIW = 1, DNFB+DIW 3.18
Experimental: as §8

TSLP [3] = assay: TSLP expression in dorsal skin of DNFB mice (RT-PCR); format: in vivo, mouse; conditions: 16th day, WIN-1001X 10 mg/ml, DEX 200 μM, DNFB+DIW 7.51
Experimental: as §5
In order to determine the anti-inflammatory activity of inventive extract, following inhibition test of TSLP cytokine expression using test animal was performed according to the procedure disclosed in the literature (Li et al., Drug. Des. Devel. Ther., 2016, Feb. 19; 10:781-191).
as §7, with “TSLP” for “various”, “inflammation” for “inflammation (GADPH, TSLP, GM-CSF, IL-4, IL-10, IL-13, IL-31 and IL-33)”

IL-33 = IL-33 expression in dorsal skin of DNFB mice (RT-PCR); format: in vivo, mouse; conditions: 16th day, WIN-1001X 10 mg/ml, DEX 200 μM, DNFB+DIW 9.47
Experimental: as §5, §6, §7

[4] = tested on: DNFB-induced skin dermatitis, BALB/C female mouse; assay: DNFB-induced atopic dermatitis in BALB/C mice, skin dermatitis severity score; format: in vivo; conditions: 16th day, topical WIN-1001X 10 mg/ml, DEX 200 μM, DNFB+DIW 8.8
Experimental: To confirm the inhibitory effect of inventive extract on the atopic dermatitis, the animal model test using by mice, was performed according to the method disclosed in the reference (Li et al., Drug. Des. Devel. Ther., 2016, Feb. 19; 10:781-191).
as §5
For the purpose of comparing with test group, the identical test excepting using acetone instead of DNFB and DIW instead of test sample with the above procedure was performed.

C[C@@H]1C[C@H]2[C@@H]3CCC4=CC(=O)C=C[C@]4(C)[C@@]3(F)[C@@H](O)C[C@]2(C)[C@@]1(O)C(=O)CO [DEX, Dexamethasone]
IL-1β expression (RT-PCR, relative to untreated = 1) (IL-1β): 1.081
relative area of epidermis (skin epidermal layer): 1.638 fold
IL-22 expression (RT-PCR, relative to acetone+DIW = 1) (IL-22): 13.08
IL-31 expression (RT-PCR, relative to acetone+DIW = 1) (IL-31): 1.001
TSLP expression (RT-PCR, relative to untreated = 1) (TSLP [1]): 52.49
IL-10 expression (RT-PCR, relative to acetone+DIW = 1) (IL-10): 20.44
IL-13 expression (RT-PCR, relative to acetone+DIW = 1) (IL-13): 12.56
IL-4 expression (RT-PCR, relative to acetone+DIW = 1) (IL-4): 4.798
relative number of mast cells [2]: 0.8548 fold
TSLP expression (RT-PCR, relative to acetone+DIW = 1) (TSLP [3]): 1.311
IL-33 expression (RT-PCR, relative to acetone+DIW = 1) (IL-33): 0.7365
Improving effect on skin dermatitis (severity score, total score 12) [4]: 2.2
